Test results published in US11542262B2, “Phosphatidylinositol 3-kinase inhibitors” (NANJING ZHENGXIANG PHARMACEUTICALS CO., LTD., priority 2019, dated 2023).
≈ marks a conversion by molar mass, not a printed value. Blank lines part the entries; values can stand above or below the compound they belong to.

Columns and labels:
[1] = molecular target: PI3Kγ (Homo sapiens, UniProt P48736); experiment: ADP-Glo luminescent assay, enzymatic activity of PI3K gamma; type: biochemical; details: ATP 25 μM; read-out: PI3K gamma (nM) inhibitory activity (IC50)
Procedure: The compounds would be tested from 1 or 10 μM, 3-fold dilution for 10 doses, in duplicate.
(§1) Compound preparation: Dilute a compound to 100× of the final desired highest inhibitor concentration in reaction by 100% DMSO. Transfer 100 μl of this compound dilution to a well in a 96-well plate and serially dilute it with DMSO for a total of 10 concentrations.
Kinase reaction: Prepare a solution of PI3K in 1× kinase buffer at 2-fold the final concentration of each reagent in the assay. Control wells contain 1× kinase buffer without enzyme. Prepare substrate solution of PIP2 substrate and ATP in 1× kinase reaction buffer at 2-fold of the final concentration. Add concentration substrate solution to each well to the final concentration. Cover the assay plate, shake to mix, and incubate at room temperature for 1 hour. Add 5 μl of ADP-Glo reagent to each well to stop the reaction. […] Add 10 ul Kinase Detection Reagent to each well, shake 1 min, equilibrate for 30 min before reading on a luminescence plate reader.
(§2) Data Analysis: Convert RLU values to percent inhibition values as Percent inhibition=(max−sample RLU)/(max−min)*100. “min”—no enzyme control; “max”—DMSO control. Fit the data in XLFit excel add-in version 5.4.0.8 to obtain IC50 values. Y=Bottom+(Top−Bottom)/(1+(IC50/X)^HillSlope).

[2] = molecular target: PI3Kδ (Homo sapiens, UniProt O00329); experiment: ADP-Glo luminescent assay, enzymatic activity of PI3K delta; type: biochemical; details: ATP 25 μM; read-out: PI3K delta (nM) inhibitory activity (IC50)
Procedure: Enzymatic activity of PI3K isoforms: Enzymatic activity of the class I PI3K isoforms in the presence of the compounds of Table 1 was measured using ADP-Glo luminescent assay against PI3Kα, PI3Kβ, PI3Kδ and PI3Kγ with ATP concentration at 25 μM. […] The compounds would be tested from 1 or 10 μM, 3-fold dilution for 10 doses, in duplicate.
as §1
(§3) Kinase reaction: Prepare a solution of PI3K in 1× kinase buffer at 2-fold the final concentration of each reagent in the assay. Control wells contain 1× kinase buffer without enzyme. Prepare substrate solution of PIP2 substrate and ATP in 1× kinase reaction buffer at 2-fold of the final concentration. Add concentration substrate solution to each well to the final concentration. Cover the assay plate, shake to mix, and incubate at room temperature for 1 hour. Add 5 μl of ADP-Glo reagent to each well to stop the reaction. Mix briefly with a quick spin, shake slowly on the shaker for 120 min. Add 10 ul Kinase Detection Reagent to each well, shake 1 min, equilibrate for 30 min before reading on a luminescence plate reader.
as §2

[3] = molecular target: T1, PI3K gamma (Mus musculus, UniProt Q9JHG7); experiment: Raw264.7 cell assay: phosphorylation of AKT in C5a stimulated RAW264.7 cells (AlphaLISA); type: cell-based; details: pAKT, read-out: PI3K gamma Raw264.7 cell (nM) cellular activity (IC50)
T1 construct: endogenous in cells; host or cells: RAW264.7
Procedure: (§4) This study aims to determine the inhibitory effect of compounds on PI3K gamma and PI3K delta in corresponding cell based assays. PI3K gamma activity was reflected by phosphorylation of AKT in C5a stimulated RAW264.7 cells, and PI3K delta activity was reflected by phosphorylation of AKT in anti-IgM stimulated Raji cells. Phosphorylation of AKT in cells was determined using AlphaLISA technology from PerkinElmer.
Raw264.7 cell assay: Prepare Passage 15 Raw264.7 cell and add 6 μL of 30K cells per well in 384-well plate by multidrop. Centrifuge at 500 RPM for 30 s and incubate for 2 hours at 37° C., 5% CO2. Add 30 nL compound by echo and incubate for 30 min at 37° C., 5% CO2. […] Add 2 μL of 5× lysis buffer by multidrop, incubate for 10 min on a plate shaker. Add 5 μL acceptor mix provided in the kit, centrifuge at 1000 RPM for 1 min. Add 5 μL donor mix provided in the kit, centrifuge at 1000 RPM for 1 min and incubate in dark for 2 hours at 25° C. Read AlphaLISA signal on Envision.
Y=Bottom+(Top−Bottom)/(1+10^((Log IC50−X)*Hill Slope)) X: Log of cpd concentration Y: Inhibition

[4] = Kinetic solubility test in PBS pH7.4; type: physicochemical; details: aqueous buffer, kinetic from dmso stock; PBS pH 7.4, 25° C., 2 hours
Procedure: 15 μL of stock solution (10 mM) was placed in order into their proper 96-well rack. 485 μL of PBS pH7.4 was added into each vial of the cap-less Solubility Sample plate. The assay was performed in singlet. Add one stir stick to each vial and seal using a molded PTFE/Silicone plug. […] After completion of the 2 hours, the samples from the Solubility Sample plate were transferred into the filter plate. all the samples were filtered using the Vacuum Manifold. Aliquot of 5 μL was taken from the filtrate followed by addition of 495 μL of a mixture of H2O and acetonitrile containing internal standard (1:1). A certain proportion of ultrapure water was used to dilute the diluent according to the peak shape. The dilution factor was changed according to the solubility values and the LC-MS signal response.
Preparation of 3 μM standards (STD): From the 10 mM DMSO STD plate, 6 μL was transferred into the remaining empty plate, and then 194 μL of DMSO was added to that plate to have a STD concentration of 300 μM. From the 300 μM DMSO STD plate, 5 μL was transferred into the remaining empty plate, and then 495 μL of a mixture of H2O and acetonitrile containing internal standard (1:1) was added to that plate to have a final STD concentration of 3 μM. A certain proportion of ultrapure water was used to dilute the diluent according to the peak shape. The concentrations of the standard samples were changed according to the LC-MS signal response.
Procedure for sample analysis: The plate was placed into the well plate autosampler. The samples were evaluated by LC-MS/MS analysis.
Data analysis: All calculations were carried out using Microsoft Excel.
The filtrate was analyzed and quantified against a standard of known concentration using LC coupled with mass spectral peak identification and quantitation. Solubility values of the test compound and control compound were calculated as follows:
[formula] • Any value of the compounds that was not within the specified limits was rejected and the experiment was repeated.

[5] = dogs, reported by Pemberton et al, J Med Chem 2018; cited from earlier work
[6] = molecular target: T2, PI3K delta (Homo sapiens, UniProt O00329); experiment: Raji cell assay: phosphorylation of AKT in anti-IgM stimulated Raji cells (AlphaLISA); type: cell-based; details: pAKT, read-out: PI3K delta Raji cell (nM) cellular activity (IC50)
T2 construct: endogenous in cells; host or cells: Raji
Procedure: as §4
Raji cell assay: Prepare Passage 11 Raji cell and add 6 μL of 60K cells per well in 384-well plate. Centrifuge at 500 RPM for 30 s and incubate for 2 hours at 37° C., 5% CO2. Add 30 nL compound by Echo and incubate for 30 min at 37° C. Add 2 μL of IgM (4×, 12 μg/mL) per well, centrifuge at 500 RPM for 30 s and incubate for 10 min at 37° C. Add 2 μL of 5× lysis buffer by Multidrop. Shake 10 min on a plate shaker. Add 5 μL acceptor mix provided in the kit. Centrifuge at 1000 RPM for 1 min. Add 5 μL donor mix provided in the kit. Centrifuge at 1000 RPM for 1 min. Then incubate for 2 hours at 25° C., keep the plate in dark. Read AlphaLISA signal on Envision.
Data analysis: Fit the cpd IC50 from non-linear regression equation. Y=Bottom+(Top−Bottom)/(1+10^((Log IC50−X)*Hill Slope)) X: Log of cpd concentration Y: Inhibition

[7] = molecular target: PI3Kβ (Homo sapiens, UniProt P42338); experiment: ADP-Glo luminescent assay, enzymatic activity of PI3K beta; type: biochemical; details: ATP 25 μM; read-out: PI3K beta (nM) inhibitory activity (IC50)
Procedure: (§5) Enzymatic activity of PI3K isoforms: Enzymatic activity of the class I PI3K isoforms in the presence of the compounds of Table 1 was measured using ADP-Glo luminescent assay against PI3Kα, PI3Kβ, PI3Kδ and PI3Kγ with ATP concentration at 25 μM. IPI-549 was used as the reference compound. The compounds would be tested from 1 or 10 μM, 3-fold dilution for 10 doses, in duplicate.
as §1, §3, §2

[8] = molecular target: PI3Kα (Homo sapiens, UniProt P42336); experiment: ADP-Glo luminescent assay, enzymatic activity of PI3K alpha; type: biochemical; details: ATP 25 μM; read-out: PI3K alpha (nM) inhibitory activity (IC50)
Procedure: as §5, §1, §3, §2

Sequence of PI3Kβ (P42338 whole entry, species assumed, canonical isoform): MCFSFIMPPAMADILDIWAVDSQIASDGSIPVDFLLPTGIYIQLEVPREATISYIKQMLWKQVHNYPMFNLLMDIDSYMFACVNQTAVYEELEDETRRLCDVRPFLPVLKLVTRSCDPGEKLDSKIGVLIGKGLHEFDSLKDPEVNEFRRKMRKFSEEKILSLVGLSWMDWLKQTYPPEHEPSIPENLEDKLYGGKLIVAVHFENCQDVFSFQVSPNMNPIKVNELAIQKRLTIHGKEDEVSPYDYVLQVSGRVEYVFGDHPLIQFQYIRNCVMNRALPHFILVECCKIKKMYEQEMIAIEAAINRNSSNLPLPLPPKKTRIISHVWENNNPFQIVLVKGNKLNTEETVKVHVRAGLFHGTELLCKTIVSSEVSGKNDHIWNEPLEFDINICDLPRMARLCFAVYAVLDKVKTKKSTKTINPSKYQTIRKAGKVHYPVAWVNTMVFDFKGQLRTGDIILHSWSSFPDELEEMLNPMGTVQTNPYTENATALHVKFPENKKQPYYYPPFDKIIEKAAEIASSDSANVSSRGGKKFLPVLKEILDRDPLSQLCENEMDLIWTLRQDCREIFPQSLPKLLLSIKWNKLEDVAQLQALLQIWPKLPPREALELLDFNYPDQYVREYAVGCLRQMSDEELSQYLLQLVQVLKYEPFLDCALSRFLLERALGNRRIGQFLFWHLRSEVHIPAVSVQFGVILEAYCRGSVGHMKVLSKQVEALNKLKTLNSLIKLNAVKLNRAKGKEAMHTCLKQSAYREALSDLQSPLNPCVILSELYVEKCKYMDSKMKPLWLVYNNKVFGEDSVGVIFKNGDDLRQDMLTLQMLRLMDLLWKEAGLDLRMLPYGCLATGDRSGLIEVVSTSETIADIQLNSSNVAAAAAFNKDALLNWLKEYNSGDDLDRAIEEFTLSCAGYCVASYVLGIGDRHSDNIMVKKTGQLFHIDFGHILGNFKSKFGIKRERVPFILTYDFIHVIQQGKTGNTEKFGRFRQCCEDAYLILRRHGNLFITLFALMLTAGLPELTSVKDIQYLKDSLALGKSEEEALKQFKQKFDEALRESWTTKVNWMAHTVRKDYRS
Sequence of PI3Kβ (P27986 whole entry partner, species assumed, canonical isoform): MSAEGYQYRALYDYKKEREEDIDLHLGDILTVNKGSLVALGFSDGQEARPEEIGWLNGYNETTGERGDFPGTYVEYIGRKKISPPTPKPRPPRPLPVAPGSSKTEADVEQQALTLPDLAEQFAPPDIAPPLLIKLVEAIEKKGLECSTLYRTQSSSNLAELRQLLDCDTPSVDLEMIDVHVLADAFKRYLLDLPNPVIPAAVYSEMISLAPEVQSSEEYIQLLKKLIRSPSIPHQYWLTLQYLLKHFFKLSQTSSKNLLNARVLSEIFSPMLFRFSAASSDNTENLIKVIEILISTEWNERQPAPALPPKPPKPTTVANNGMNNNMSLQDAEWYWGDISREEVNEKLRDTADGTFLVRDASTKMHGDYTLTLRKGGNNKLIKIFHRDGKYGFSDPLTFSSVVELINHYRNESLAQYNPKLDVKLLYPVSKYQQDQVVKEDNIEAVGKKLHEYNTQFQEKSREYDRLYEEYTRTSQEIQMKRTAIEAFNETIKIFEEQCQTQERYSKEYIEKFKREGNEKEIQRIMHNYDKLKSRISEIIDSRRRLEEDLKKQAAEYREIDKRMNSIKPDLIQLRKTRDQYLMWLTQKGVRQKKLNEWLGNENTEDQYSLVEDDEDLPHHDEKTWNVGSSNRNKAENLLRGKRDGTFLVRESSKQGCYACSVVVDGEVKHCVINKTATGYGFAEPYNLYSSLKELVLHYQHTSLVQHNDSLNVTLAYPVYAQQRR
T1 sequence (Q9JHG7 whole entry): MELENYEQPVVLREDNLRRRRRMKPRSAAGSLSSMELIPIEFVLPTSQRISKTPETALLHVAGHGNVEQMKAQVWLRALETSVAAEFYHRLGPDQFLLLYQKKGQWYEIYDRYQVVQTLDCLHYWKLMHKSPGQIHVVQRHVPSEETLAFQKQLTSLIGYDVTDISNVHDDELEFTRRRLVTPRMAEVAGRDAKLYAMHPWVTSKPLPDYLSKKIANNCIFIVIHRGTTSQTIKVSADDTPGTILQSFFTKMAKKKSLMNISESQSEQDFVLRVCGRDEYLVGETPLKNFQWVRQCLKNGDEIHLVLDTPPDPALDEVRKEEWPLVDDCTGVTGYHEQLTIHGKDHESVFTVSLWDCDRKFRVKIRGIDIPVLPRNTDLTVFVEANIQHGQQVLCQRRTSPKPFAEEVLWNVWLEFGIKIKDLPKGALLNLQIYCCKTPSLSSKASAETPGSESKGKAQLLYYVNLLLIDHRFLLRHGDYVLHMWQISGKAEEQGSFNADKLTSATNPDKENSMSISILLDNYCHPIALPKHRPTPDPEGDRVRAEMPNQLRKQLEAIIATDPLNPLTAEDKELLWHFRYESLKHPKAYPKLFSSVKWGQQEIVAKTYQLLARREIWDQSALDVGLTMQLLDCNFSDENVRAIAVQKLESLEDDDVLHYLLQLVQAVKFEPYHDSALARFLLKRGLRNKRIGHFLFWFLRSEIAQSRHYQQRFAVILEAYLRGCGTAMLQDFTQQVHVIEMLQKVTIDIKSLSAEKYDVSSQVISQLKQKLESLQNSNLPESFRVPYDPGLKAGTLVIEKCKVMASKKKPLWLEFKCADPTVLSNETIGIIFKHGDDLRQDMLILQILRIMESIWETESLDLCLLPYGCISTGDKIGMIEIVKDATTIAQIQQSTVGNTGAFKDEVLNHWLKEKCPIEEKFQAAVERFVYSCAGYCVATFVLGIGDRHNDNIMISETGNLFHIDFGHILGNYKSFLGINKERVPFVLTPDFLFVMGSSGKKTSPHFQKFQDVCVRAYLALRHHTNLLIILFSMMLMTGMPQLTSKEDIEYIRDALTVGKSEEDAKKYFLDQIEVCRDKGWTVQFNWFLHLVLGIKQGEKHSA
T1 sequence (Q5SW28 whole entry partner): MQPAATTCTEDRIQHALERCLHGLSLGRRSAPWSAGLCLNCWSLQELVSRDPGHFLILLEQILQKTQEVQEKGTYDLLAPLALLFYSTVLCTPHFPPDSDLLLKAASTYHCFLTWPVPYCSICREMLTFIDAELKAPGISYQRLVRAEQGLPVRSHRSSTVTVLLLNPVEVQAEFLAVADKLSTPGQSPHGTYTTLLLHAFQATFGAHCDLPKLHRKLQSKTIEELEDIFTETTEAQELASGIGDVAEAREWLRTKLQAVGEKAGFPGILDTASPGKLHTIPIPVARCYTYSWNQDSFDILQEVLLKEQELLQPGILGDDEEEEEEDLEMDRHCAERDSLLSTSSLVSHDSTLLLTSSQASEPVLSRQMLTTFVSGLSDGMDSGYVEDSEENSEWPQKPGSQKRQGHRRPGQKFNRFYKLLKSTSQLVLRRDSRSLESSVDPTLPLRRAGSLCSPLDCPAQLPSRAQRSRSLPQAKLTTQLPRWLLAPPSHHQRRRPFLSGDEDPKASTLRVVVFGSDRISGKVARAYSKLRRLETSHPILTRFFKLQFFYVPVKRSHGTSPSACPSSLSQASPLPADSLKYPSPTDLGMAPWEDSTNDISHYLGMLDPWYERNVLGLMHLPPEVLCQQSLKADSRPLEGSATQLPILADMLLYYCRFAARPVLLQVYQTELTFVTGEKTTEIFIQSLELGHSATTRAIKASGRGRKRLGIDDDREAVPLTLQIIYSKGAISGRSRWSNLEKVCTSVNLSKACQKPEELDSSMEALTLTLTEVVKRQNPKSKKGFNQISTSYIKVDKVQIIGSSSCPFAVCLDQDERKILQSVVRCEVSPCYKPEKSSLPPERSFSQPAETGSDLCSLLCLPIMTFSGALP
Sequence of PI3Kα (P42336 whole entry, species assumed): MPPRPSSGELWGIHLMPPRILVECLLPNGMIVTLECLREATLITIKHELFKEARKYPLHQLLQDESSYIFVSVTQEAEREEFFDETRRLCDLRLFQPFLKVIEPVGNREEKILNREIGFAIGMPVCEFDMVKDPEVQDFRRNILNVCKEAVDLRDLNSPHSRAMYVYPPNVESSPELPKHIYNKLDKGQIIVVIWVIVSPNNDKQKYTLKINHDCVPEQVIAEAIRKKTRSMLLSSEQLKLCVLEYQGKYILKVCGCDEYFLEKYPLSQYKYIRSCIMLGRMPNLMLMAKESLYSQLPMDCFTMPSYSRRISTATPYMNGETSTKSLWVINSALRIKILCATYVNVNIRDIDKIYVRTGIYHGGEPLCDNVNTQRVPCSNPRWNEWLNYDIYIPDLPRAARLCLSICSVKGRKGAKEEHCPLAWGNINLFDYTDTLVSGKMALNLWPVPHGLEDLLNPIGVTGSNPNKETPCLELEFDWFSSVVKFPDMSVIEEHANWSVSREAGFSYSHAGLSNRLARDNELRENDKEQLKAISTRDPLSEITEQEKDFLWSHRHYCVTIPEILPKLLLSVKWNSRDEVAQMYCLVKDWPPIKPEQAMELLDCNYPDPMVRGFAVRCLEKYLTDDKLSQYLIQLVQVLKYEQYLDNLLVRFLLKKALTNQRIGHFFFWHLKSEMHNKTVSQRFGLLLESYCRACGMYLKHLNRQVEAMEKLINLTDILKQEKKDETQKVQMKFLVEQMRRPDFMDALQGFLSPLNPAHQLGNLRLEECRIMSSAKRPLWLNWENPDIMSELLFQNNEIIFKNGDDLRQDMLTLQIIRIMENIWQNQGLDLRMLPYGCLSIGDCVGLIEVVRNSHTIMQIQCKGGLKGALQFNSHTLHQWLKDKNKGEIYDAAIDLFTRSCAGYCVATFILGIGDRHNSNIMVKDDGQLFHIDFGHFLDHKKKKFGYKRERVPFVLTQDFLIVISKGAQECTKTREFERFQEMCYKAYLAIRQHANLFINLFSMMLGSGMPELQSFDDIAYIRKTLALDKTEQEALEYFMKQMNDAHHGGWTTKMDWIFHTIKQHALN
Sequence of PI3Kα (P27986 whole entry partner, species assumed): as the sequence (P27986 whole entry partner, species assumed, canonical isoform) above

Structure (SMILES): CC(=O)Nc1nc(C)c(-c2cc3c(c([S@@+](C)[O-])c2)C(=O)N([C@@H](C)C2CC2)C3)s1 (racemic) [Compound 12, N-(5-(2-((S)-1-cyclopropylethyl)-7-(methylsulfinyl)-1-oxoisoindolin-5-yl)-4-methylthiazol-2-yl)acetamide]
IC50 [1]: 1.7 nM | IC50 [2]: 2080 nM | IC50 [3]: 30 nM | solubility at 2 h [4]: 211 µM (≈ 88.1 µg/mL)

Structure (SMILES): CC(=O)Nc1nc(C)c(-c2cc3c(c(N4CCOCC4)n2)C(=O)N(C(C)C(F)(F)F)C3)s1 (stereo in doubt) [Compound 36, (R)-N-(4-methyl-5-(4-morpholino-3-oxo-2-(1,1,1-trifluoropropan-2-yl)-2,3-dihydro-1H-pyrrolo[3,4-c]pyridin-6-yl)thiazol-2-yl)acetamide]
IC50 [1]: 2.4 nM | IC50 [2]: 1250 nM | IC50 [3]: 3.3 nM | solubility at 2 h [4]: 32 µM (≈ 15 µg/mL)

Structure (SMILES): CC(=O)Nc1nc(C)c(-c2cc3c(c(NS(C)(=O)=O)c2)C(=O)N([C@@H](C)C2CC2)C3)s1 [AZ-17]
Vssobs [5]: 0.7 L/kg

Structure (SMILES): CC(=O)Nc1nc(C)c(-c2cc3c(c(P(C)(C)=O)c2)C(=O)N([C@@H](C)C2CC2)C3)s1 [Compound 1, (S)-N-(5-(2-(1-cyclopropylethyl)-7-(dimethylphosphoryl)-1-oxoisoindolin-5-yl)-4-methylthiazol-2-yl)acetamide]
IC50 [1]: 1.4 nM | IC50 [2]: > 1000 nM | IC50 [6]: > 1000 nM | IC50 [3]: 315 nM

Structure (SMILES): COc1nc(-c2sc(NC(C)=O)nc2C)cc2c1C(=O)N([C@@H](C)C1CC1)C2 [Compound 22, (S)-N-(5-(2-(1-cyclopropylethyl)-4-methoxy-3-oxo-2,3-dihydro-1H-pyrrolo[3,4-c]pyridin-6-yl)-4-methylthiazol-2-yl)acetamide]
IC50 [1]: 1.7 nM | IC50 [2]: > 1000 nM | IC50 [6]: 2280 nM | IC50 [3]: 2.5 nM | solubility at 2 h [4]: 3.5 µM (≈ 1.35 µg/mL)

Structure (SMILES): CC(=O)Nc1nc(C)c(-c2cc3c(c(N4CCS(=O)(=O)CC4)n2)C(=O)N([C@@H](C)C2CC2)C3)s1 [Compound 38, (S)-N-(5-(2-(1-cyclopropylethyl)-4-(1,1-dioxidothiomorpholino)-3-oxo-2,3-dihydro-M-pyrrolo[3,4-c]pyridin-6-yl)-4-methylthiazol-2-yl)acetamide]
IC50 [1]: 1.9 nM | IC50 [7]: > 10000 nM | IC50 [2]: 1550 nM | IC50 [8]: 8420 nM | IC50 [3]: 9.3 nM | solubility at 2 h [4]: 2.3 µM (≈ 1.13 µg/mL)

Structure (SMILES): CC(=O)Nc1nc(C)c(-c2cc3c(c(NC(C)=O)n2)C(=O)N([C@@H](C)C2CC2)C3)s1 [Compound 44, (S)-N-(5-(4-acetamido-2-(1-cyclopropylethyl)-3-oxo-2,3-dihydro-M-pyrrolo[3,4-c]pyridin-6-yl)-4-methylthiazol-2-yl)acetamide]
IC50 [1]: 0.87 nM | IC50 [2]: > 1000 nM | IC50 [3]: 5.1 nM | solubility at 2 h [4]: 1.2 µM (≈ 0.496 µg/mL)

The remaining compounds from weak to strong by IC50 [2], led by results:

IC50 [7]: > 10000 nM | IC50 [2]: 1330 nM | IC50 [8]: 4140 nM | IC50 [3]: 3.2 nM | solubility at 2 h [4]: 23 µM (≈ 10.2 µg/mL)
Structure (SMILES): CC(=O)Nc1nc(C)c(-c2cc3c(c(N4CCOCC4)n2)C(=O)N([C@H](C)C2CC2)C3)s1 [Compound 35, (R)-N-(5-(2-(1-cyclopropylethyl)-4-morpholino-3-oxo-2,3-dihydro-1H-pyrrolo[3,4-c]pyridin-6-yl)-4-methylthiazol-2-yl)acetamide]

IC50 [1]: 1 nM | IC50 [7]: > 10000 nM | IC50 [2]: 1210 nM | IC50 [8]: 3330 nM | IC50 [6]: 1510 nM | IC50 [3]: 2 nM | solubility at 2 h [4]: 202 µM (≈ 93.6 µg/mL)
Structure (SMILES): CCS(=O)(=O)Nc1nc(-c2sc(NC(C)=O)nc2C)cc2c1C(=O)N([C@@H](C)C1CC1)C2 [Compound 23, (S)-N-(5-(2-(1-cyclopropylethyl)-4-(ethylsulfonamido)-3-oxo-2,3-dihydro-1H-pyrrolo[3,4-c]pyridin-6-yl)-4-methylthiazol-2-yl)acetamide]

IC50 [1]: 1.5 nM | IC50 [2]: 794 nM | IC50 [6]: 1420 nM | IC50 [3]: 2.2 nM | solubility at 2 h [4]: 83 µM (≈ 39.5 µg/mL)
Structure (SMILES): CC(=O)Nc1nc(C)c(-c2cc3c(c(NS(=O)(=O)C4CC4)n2)C(=O)N([C@@H](C)C2CC2)C3)s1 [Compound 24, (S)-N-(5-(4-(cyclopropanesulfonamido)-2-(1-cyclopropylethyl)-3-oxo-2,3-dihydro-1H-pyrrolo[3,4-c]pyridin-6-yl)-4-methylthiazol-2-yl)acetamide]

IC50 [1]: 1.9 nM | IC50 [2]: 784 nM | IC50 [3]: 130 nM | solubility at 2 h [4]: 245 µM (≈ 106 µg/mL)
Structure (SMILES): CC(=O)Nc1nc(C)c(-c2cc3c(c([S@](C)(=N)=O)c2)C(=O)N([C@@H](C)C2CC2)C3)s1 (racemic) [Compound 15, N-(5-(2-((S)-1-cyclopropylethyl)-7-(S-methylsulfonimidoyl)-1-oxoisoindolin-5-yl)-4-methylthiazol-2-yl)acetamide]
